pIC50: −log10 of the molar value.
Test: Inhibition of human recombinant CCR5 encoding an HIV-1-longterminal-repeat-regulated beta-galactosidase reporter gene expressed in human HeLaP4 cells assessed as reduction of interaction with HIV-1 gp160 expressed in CHO cells by cell-cell fusion assay

In the case of `Cc1nc2ccccc2n1C1CCN(CCC(c2ccccc2)c2ccccc2)CC1`, the pIC50 was 6.19.

Source: BindingDB's records for doi:10.1021/acs.jmedchem.5b00497 (Shandong University, 2016)
